Test results as given in patent US20030207924A1, “Compounds that modulate PPAR activity and methods of preparation” (priority 2002, published 2003).
Like-named read-outs stand apart in the source and are kept apart here. Each block holds one molecule with its values, some of them ahead of it.

Columns and labels:
hPPARβ chimeric receptor = molecular target: T1, hPPARβ chimeric receptor (Homo sapiens, UniProt Q03181); test: Transient transfection assay in HepG2 cells, Gal4-hPPARβ chimeric receptor, luciferase reporter (Test A); type: cell-based; conditions: for EC50-β (Hep G2-hBeta EC50): HepG2 cells, hPPARβ chimeric receptor, luciferase reporter, 24 hours
T1 construct: "expression plasmids encoding hPPARα, hPPARβ or mPPARγ chimeric receptors"
T1 sequence (Q03181 171-441 limits assumed): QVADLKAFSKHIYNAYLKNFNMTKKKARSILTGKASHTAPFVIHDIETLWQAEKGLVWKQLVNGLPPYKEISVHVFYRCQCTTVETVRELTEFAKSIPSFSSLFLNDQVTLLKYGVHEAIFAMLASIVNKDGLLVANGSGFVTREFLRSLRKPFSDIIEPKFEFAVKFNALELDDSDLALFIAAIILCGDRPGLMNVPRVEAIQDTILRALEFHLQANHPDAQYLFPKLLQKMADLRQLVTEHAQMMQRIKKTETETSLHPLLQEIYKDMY
Description: (§1) 1. Test A. Transient Transfections Assay Using the HepG2 Hepatoma Cell Line.
(§2) HepG2 cells were transiently transfected with an expression plasmids encoding hPPARα, hPPARβ or mPPARγ chimeric receptors and a reporter containing the yeast upstream activating sequence (UAS) upstream of the viral E1B promoter controlling a luciferase reporter gene. In addition, the plasmid pRSVβ-gal was used to control for transfection efficiency. HepG2 cells were grown in DMEM supplemented with 10% FBS and […] non-essential amino acid. On the first day, cells were split into 100 mm dishes at 2.5×10^6/dish and incubated overnight at 37° C./5% CO2. On the second day the cells were transiently transfected with plasmid DNA encoding a chimeric receptor, the luciferase reporter gene; and β-gal. For each 100 mm dish, 15 μg of lucifease reporter (PG5E1b) DNA, 15 μg of Gal4-PPAR chimeric receptor DNA, and 1.5 μg of β-gal plasmid DNA were mixed with 1.4 ml of opti-MEM in the tube. 28 μl of LipoFectamine-2000 reagent was added to 1.4 ml of opti-MEM in the tube, and incubate for 5 min at RT. The diluted Lipofectamine-2000 reagent was combined with the DNA mixture, and incubate for 20 min at RT. After fresh medium was added to each 100 mm dish of cells, 2.8 ml of Lipofectamine2000-DNA mixture was added dropwise to the 100 mm dish containing 14 ml of medium, and incubate 37° C. overnight. On day three cells were trypsinized off the 100 mm dishes and re-plated on 96 well plates. Cells were plated at 2.5×10^4 cells per well in 150 μl of media and 50 μl of compound diluted by media was added. The test compounds added were in the range from 50 μM to 50 pM. After addition of compounds, the plates were incubated at 37° C. for 24 hours. Subsequently cells were washed with once with 100 μl of PBS, lysed, and processed for measuring luciferase and β-gal activity using Dual-Light luciferase kit from Tropix®, according to the manufacturer's recommendations, on an EG&G Bethold MicroLumat LB96P luminometer. EC50 values were obtained using the GraphPad Prism™ program.

hPPARα chimeric receptor = molecular target: T2, hPPARα chimeric receptor (Homo sapiens, UniProt Q07869); test: Transient transfection assay in HepG2 cells, Gal4-hPPARα chimeric receptor, luciferase reporter (Test A); type: cell-based
T2 construct: "expression plasmids encoding hPPARα, hPPARβ or mPPARγ chimeric receptors"
T2 sequence (Q07869 200-468 limits assumed): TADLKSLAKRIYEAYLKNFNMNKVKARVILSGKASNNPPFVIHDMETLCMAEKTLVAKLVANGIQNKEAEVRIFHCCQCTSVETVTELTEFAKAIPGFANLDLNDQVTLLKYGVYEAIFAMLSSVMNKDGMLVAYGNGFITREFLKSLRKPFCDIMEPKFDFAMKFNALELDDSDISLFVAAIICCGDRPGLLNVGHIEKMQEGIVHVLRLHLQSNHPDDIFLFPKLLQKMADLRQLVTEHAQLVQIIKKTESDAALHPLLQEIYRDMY
Description: as §1
as §2, with “program. […] Accordingly, the compounds of the present invention should find considerable therapeutic applications for hypercholesterolemia and hyperlipidemia.” for “program.”

[1] = HepG2 cells, hPPARα chimeric receptor, luciferase reporter, 24 hours, read-out: EC50-α (Hep G2-hAlpha EC50)

SMILES: CC(=O)Nc1cc(OCC(=O)O)c(C)cc1SCc1sc(-c2ccc(C(F)(F)F)cc2)nc1C [Example 25, 2-[5-(acetylamino)-2-methyl-4-({4-methyl-2-[4-(trifluoromethyl)phenyl](1,3-thiazol-5-yl)}methylthio)phenoxy]acetic acid]
EC50-β (Hep G2-hBeta EC50) (hPPARβ chimeric receptor): 2000 µM

SMILES: COc1cc(C(C)(C)C(=O)O)ccc1SCc1sc(-c2ccc(C(F)(F)F)cc2)nc1C [Example 17, 2-{3-Methoxy-4-[4-methyl-2-(4-trifluoromethyl-phenyl)-thiazol-5-ylmethylsulfanyl]-phenyl}-2-methyl-propionic acid]
EC50 (hPPARβ chimeric receptor): 19.9 nM
EC50 (hPPARα chimeric receptor; [1]): 0.0055 µM

SMILES: Cc1nc(-c2ccc(C(F)(F)F)cc2)sc1CSc1ccc(C2CCC(CC(=O)O)CC2)cc1 (stereo not drawn) [Example 33, (4-{4-[4-Methyl-2-(4-trifluoromethyl-phenyl)-thiazol-5-ylmethylsulfanyl]-phenyl}-cyclohexyl)-acetic acid]
EC50-β (Hep G2-hBeta EC50) (hPPARβ chimeric receptor): 2000 µM

SMILES: Cc1nc(-c2ccc(C(F)(F)F)cc2)sc1CSc1ccc(C2(C(=O)O)CCCC2)cc1 [Example 14, 1-{4-[4-Methyl-2-(4-trifluoromethyl-phenyl)-thiazol-5-ylmethylsulfanyl]-phenyl}-cyclopentanecarboxylic acid]
EC50 (hPPARβ chimeric receptor): 6740 nM
EC50 (hPPARα chimeric receptor; [1]): 0.992 µM

SMILES: Cc1nc(-c2ccc(C(F)(F)F)cc2)sc1CSc1ccc(OCCC(=O)O)cc1 [Example 16, 3-{4-[4-Methyl-2-(4-trifluoromethyl-phenyl)-thiazol-5-ylmethylsulfanyl]-phenoxy}-propionic acid]
EC50 (hPPARβ chimeric receptor): 1950 nM
EC50 (hPPARα chimeric receptor; [1]): 1.23 µM

SMILES: Cc1nc(-c2ccc(C(F)(F)F)cc2)sc1CSc1ccc(C(C)(C)CC(=O)O)cc1 [Example 18, 3-Methyl-3-{4-[4-methyl-2-(4-trifluoromethyl-phenyl)-thiazol-5-ylmethylsulfanyl]-phenyl}-butyric acid]
EC50 (hPPARβ chimeric receptor): 803 nM

SMILES: Cc1nc(-c2ccc(C(F)(F)F)cc2)sc1CSc1ccc(C(C)(C)C(=O)O)cc1 [Example 11, 2-Methyl-2-{4-[4-methyl-2-(4-trifluoromethyl-phenyl)-thiazol-5-ylmethylsulfanyl]-phenyl}-propionic acid]
EC50 (hPPARβ chimeric receptor): 48.8 nM
EC50 (hPPARα chimeric receptor; [1]): 0.507 µM

SMILES: Cc1nc(-c2ccc(C(F)(F)F)cc2)sc1CSc1ccc(CC(C(=O)O)n2cccc2)cc1 (stereo not drawn) [Example 24, 3-{4-[4-Methtyl-2-(4-trifluoromethyl-phenyl)-thiazol-5-ylmethylsulfanyl]-phenyl}-2-pyrrol-1-yl-propionic acid]
EC50-β (Hep G2-hBeta EC50) (hPPARβ chimeric receptor): 2000 µM
EC50 (hPPARα chimeric receptor; [1]): 2000 µM

SMILES: COc1cc(CN2CCCC2C(=O)O)ccc1SCc1sc(-c2ccc(C(F)(F)F)cc2)nc1C (stereo not drawn) [Example 29]
EC50-β (Hep G2-hBeta EC50) (hPPARβ chimeric receptor): 2000 µM

Other lines, results leading:

EC50 (hPPARβ chimeric receptor): 473 nM
EC50 (hPPARα chimeric receptor; [1]): 1.34 µM
SMILES: Cc1cc(OCC(=O)O)cc(C)c1SCc1sc(-c2ccc(C(F)(F)F)cc2)nc1C [Example 7, {3,5-Dimethyl-4-[4-methyl-2-(4-trifluoromethyl-phenyl)-thiazol-5-ylmethylsulfanyl]-phenoxy}-acetic acid]

EC50 (hPPARβ chimeric receptor): 361 nM
EC50 (hPPARα chimeric receptor; [1]): 1.23 µM
SMILES: CCc1cc(OCC(=O)O)c(C)cc1SCc1sc(-c2ccc(C(F)(F)F)cc2)nc1C [Example 2, {5-Ethyl-2-methyl-4-[4-methyl-2-(4-trifluoromethyl-phenyl)-thiazol-5-ylmethylsulfanyl]-phenoxy}-acetic acid]

EC50 (hPPARβ chimeric receptor): 1120 nM
EC50 (hPPARα chimeric receptor; [1]): 1.54 µM
SMILES: COc1cc(OC)c(SCc2sc(-c3ccc(C(F)(F)F)cc3)nc2C)cc1CCC(=O)O [Example 19, 3-{2,4-Dimethoxy-5-[4-methyl-2-(4-trifluoromethyl-phenyl)-thiazol-5-ylmethylsulfanyl]-phenyl}-propionic acid]

EC50 (hPPARβ chimeric receptor): 1250 nM
EC50 (hPPARα chimeric receptor; [1]): 0.442 µM
SMILES: COc1cc(OC)c(SCc2sc(-c3ccc(C(F)(F)F)cc3)nc2C)cc1CC(=O)O [Example 21, {2,4-Dimethoxy-5-[4-methyl-2-(4-trifluoromethyl-phenyl)-thiazol-5-ylmethylsulfanyl]}-acetic acid]

EC50 (hPPARβ chimeric receptor): 0.07 nM
EC50 (hPPARα chimeric receptor; [1]): 0.17 µM
SMILES: Cc1cc(SCc2sc(-c3ccc(C(F)(F)F)cc3)nc2C)c(F)cc1OCC(=O)O [Example 26, 2-[5-fluoro-2-methyl-4-({4-methyl-2-[4-(trifluoromethyl)phenyl](1,3-thiazol-5-yl)}methylthio)phenoxy]acetic acid]

EC50 (hPPARβ chimeric receptor): 1240 nM
EC50 (hPPARα chimeric receptor; [1]): 1.39 µM
SMILES: COc1cc(SCc2sc(-c3ccc(C(F)(F)F)cc3)nc2C)c(C)cc1OCC(=O)O [Example 6, {2-Methoxy-5-methyl-4-[4-methyl-2-(4-trifluoromethyl-phenyl)-thiazol-5-ylmethylsulfanyl]-phenoxy}-acetic acid]

EC50 (hPPARβ chimeric receptor): 45.3 nM
EC50 (hPPARα chimeric receptor; [1]): 0.84 µM
SMILES: COc1cc(OCC(=O)O)cc(C)c1SCc1sc(-c2ccc(C(F)(F)F)cc2)nc1C [Example 8, {3-Methoxy-5-methyl-4-[4-methyl-2-(4-trifluoromethyl-phenyl)-thiazol-5-ylmethylsulfanyl]-phenoxy}-acetic acid]

EC50 (hPPARβ chimeric receptor): 649 nM
EC50 (hPPARα chimeric receptor): 0.625 µM
SMILES: COCc1cc(OCC(=O)O)c(C)cc1SCc1sc(-c2ccc(C(F)(F)F)cc2)nc1C [Example 32, 2-[5-(methoxymethyl)-2-methyl-4-({4-methyl-2-[4-(trifluoromethyl)phenyl](1,3-thiazol-5-yl)}methylthio)phenoxy]acetic acid]

EC50 (hPPARβ chimeric receptor): 34.9 nM
EC50 (hPPARα chimeric receptor; [1]): 0.146 µM
SMILES: COc1cc(SCc2sc(-c3ccc(C(F)(F)F)cc3)nc2C)c(OC)cc1CCC(=O)O [Example 20, 3-{2,5-Dimethoxy-4-[4-methyl-2-(4-trifluoromethyl-phenyl)-thiazol-5-ylmethylsulfanyl]-phenyl}-propionic acid]

EC50 (hPPARβ chimeric receptor): 14.4 nM
EC50 (hPPARα chimeric receptor; [1]): 0.042 µM
SMILES: Cc1cc(SCc2sc(-c3ccc(C(F)(F)F)cc3)nc2C)c(C)cc1OCC(=O)O [Example 1, {2,5-Dimethyl-4-[4-methyl-2-(4-trifluoromethyl-phenyl)-thiazol-5-ylmethylsulfanyl]-phenoxy}-acetic acid]

EC50 (hPPARβ chimeric receptor): 105 nM
EC50 (hPPARα chimeric receptor; [1]): 2.05 µM
SMILES: Cc1cc(SCc2sc(-c3ccc(C(F)(F)F)cc3)nc2C)c(Cl)cc1OCC(=O)O [Example 31, {5-Chloro-2-methyl-4-[4-methyl-2-(4-trifluoromethyl-phenyl)-thiazol-5-ylmethylsulfanyl]-phenoxy}-acetic acid]
